Where two headings read alike, the source gives them in different places. Marks after values point to notes of the source that are not given here.
Key:
[1] = target: T1, CAMKK2-KD (kinase domain of CAMKK2) (Homo sapiens, UniProt Q96RR4); assay: DSF thermal-shift screen, 384-well format; format: binding; conditions: 10 µM compound, 1 µM kinase, 0.1% DMSO, single measurement
T1 construct: the protein kinase domain (amino acids 161–449); hexahistidine (6xHis), TEV-cleavable; made in house
Procedure: (§1) We employed a thermal-shift assay (Differential Scanning Fluorimetry, DSF)[19] to identify compounds that can bind to the kinase domain of CAMKK2 (CAMKK2-KD). Protein thermal denaturation curves (Fig. 1A,B) were used to calculate the denaturation midpoint temperature (Tm) for the kinase domain of CAMKK2 in the presence of ligands or vehicle only (DMSO). […] DSF screens were performed on purified CAMKK2-KD using a library of commercially available, chemically diverse, ATP-competitive, kinase inhibitors.
DSF experiments in 384-well format followed a protocol previously established at the SGC-UNICAMP and described elsewhere.
The compounds, previously solubilized in DMSO, were used at 10 µM final concentration and 0.1% DMSO. Plates were sealed using optically clear films and transferred to a QuantStudio 6 qPCR instrument (Applied Biosystems). […] Protein in 0.1% DMSO was used as a reference.
(§2) For both formats, experiments were performed in singlets.

CAMKK2-FL = target: T2, CAMKK2-FL (Homo sapiens, UniProt Q96RR4); assay: Radiometric enzymatic assay (Eurofins Discovery), Ca2+/Calmodulin present; format: biochemical; conditions: for IC50: 90 µM ATP, single measurement
T2 construct: an enzymatic assay using the full-length protein (CAMKK2-FL); purchased Eurofins Discovery (MO, USA), assay service

CAMKK1-FL = target: T3, CAMKK1-FL (Homo sapiens, UniProt Q8N5S9); assay: as above; format: biochemical; conditions: 200 µM ATP; single measurement
T3 construct: purchased Eurofins Discovery (MO, USA), assay service
Procedure: All compounds employed in this study were initially developed to target other human protein kinases, and some are known to be quite promiscuous[18],[21].
Reaction conditions for assays using CAMKK1-FL were: 8 mM MOPS pH 7.0, 0.2 mM EDTA, 0.33 mg/mL MBP (myelin basic protein), 0.5 mM calcium chloride, 0.016 mg/ml calmodulin, 10 mM magnesium acetate and [gamma-^33P-ATP] (200 µM). […] The reactions were initiated by the addition of a Mg^2+-ATP mixture. After incubation for 40 minutes at room temperature, the reaction was stopped by the addition of phosphoric acid to a final concentration of 0.5%. […] Following subtraction of the average inhibitor control well counts, results were expressed as a percentage of the mean kinase activity in the positive control sample.

CAMKK2-KD = CAMKK2-KD (Homo sapiens, UniProt Q96RR4); assay: Isothermal titration calorimetry (reverse titration); conditions: 20 °C
Procedure: All ITC experiments described below were performed twice.
Measurements were made using a MicroCal AutoITC200 (Malvern, United Kingdom). […] Small molecule inhibitors were diluted in dialysis buffer. All ITC experiments were performed using a “reverse titration” setup in which the protein (in the syringe) was titrated into the cell containing the inhibitor. Two independent ITC measurements were performed for each compound, data for individual runs were integrated separately to obtain single isotherms, which were plotted and analyzed using Sedphat[37]. […] All measurements were made at 20 °C with mixing (1,000 rpm stirring), and used 1.5 µL injections and 180 s between each injection. NITPIC, SEDPHAT and GUSSI[37] were used to analyze and generate figures for ITC data.

[2] = target: T1, CAMKK2-KD (kinase domain of CAMKK2); assay: DSF thermal-shift screen, 96-well format; format: binding; conditions: for ΔTm at 12 µM: read-out: ΔTm
Procedure: as §1
SYPRO Orange dye (Invitrogen) was used in 5X as final concentration.
Plates were sealed using optically clear films and transferred to an Mx3005p RT-PCR machine (Agilent).
as §2

[3] = individual ITC experiment, run 1
[4] = individual ITC experiment, run 2
[5] = 96-well format, 12 µM compound, 2 µM kinase, 2.5% DMSO, single measurement

Chain of CAMKK2-KD (Q96RR4 161-449): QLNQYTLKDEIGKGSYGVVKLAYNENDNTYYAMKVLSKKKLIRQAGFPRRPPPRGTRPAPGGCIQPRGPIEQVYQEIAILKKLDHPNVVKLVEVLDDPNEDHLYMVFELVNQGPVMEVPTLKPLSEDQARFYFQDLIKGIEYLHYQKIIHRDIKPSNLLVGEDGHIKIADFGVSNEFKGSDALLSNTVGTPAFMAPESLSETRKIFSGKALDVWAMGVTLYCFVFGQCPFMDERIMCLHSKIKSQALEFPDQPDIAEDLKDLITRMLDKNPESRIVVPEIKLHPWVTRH
T1 sequence (Q96RR4 161-449): as above

Cc1[nH]nc2ccc(-c3cncc(OC[C@@H](N)Cc4ccccc4)c3)cc12 [A-674563]
ΔTm [1]: 4.7 °C

COc1cc(N2CCC(N(C)C)CC2)ccc1Nc1ncc(Cl)c(Nc2ccccc2P(C)(C)=O)n1 [ALK-IN-1]
ΔTm [1]: 11.2^d °C
fold more active towards CAMKK2-FL than CAMKK1-FL (CAMKK2-FL; from IC50 values of Table 1): ~ 10 fold
IC50 (CAMKK1-FL): 182 nM
ΔH Run 1 (CAMKK2-KD; [3]): -10.3 kcal/mol
ΔG Run 2 (CAMKK2-KD; [4]): -10.9 kcal/mol
ΔH Run 2 (CAMKK2-KD; [4]): -9.73 kcal/mol
Kd (CAMKK2-KD; read-out: ITC KD, serial integrations of two independent experiments): 2 nM
Kd (CAMKK2-KD; read-out: KD Run 1, individual ITC experiment, run 1): 2.5 nM
Kd (CAMKK2-KD; read-out: KD Run 2, individual ITC experiment, run 2): 2 nM

Cc1cc(Nc2nc(N[C@@H](C)c3ccc(F)cc3)c(C#N)cc2F)[nH]n1 [AZ 960]
ΔTm at 10 µM [1]: 4.3 °C

COc1cc(N2CCC(N)CC2)ccc1Nc1ncc(Cl)c(-c2c[nH]c3ccccc23)n1 [AZD3463]
ΔTm [1]: 9.3 °C

C=CC(=O)Nc1cc(Nc2nccc(-c3cn(C)c4ccccc34)n2)c(OC)cc1N(C)CCN(C)C [AZD9291]
ΔTm at 10 µM [1]: 4.1 °C

Nc1nc(Nc2ccc(S(N)(=O)=O)cc2)nn1C(=O)c1c(F)cccc1F [Aurora/Cdk Inhibitor]
ΔTm [2, 5]: 4.3 °C

CC[C@@H]1C(=O)N(C)c2cnc(Nc3ccc(C(=O)N[C@H]4CC[C@H](N5CCN(CC6CC6)CC5)CC4)cc3OC)nc2N1C(C)C [BI 6727, Volasertib]
ΔTm at 10 µM [1]: 6 °C
IC50 (CAMKK2-FL): 44 nM
IC50 (CAMKK1-FL): 87 nM

Cn1cc(C2=C(c3cn(CCCSC(=N)N)c4ccccc34)C(=O)NC2=O)c2ccccc21 [BIM IX]
ΔTm [2, 5]: 8.1 °C

CN(C)CCCn1cc(C2=C(c3c[nH]c4ccccc34)C(=O)NC2=O)c2ccccc21 [BIM I]
ΔTm [2, 5]: 7.2^e °C
IC50 (CAMKK1-FL): 2590 nM

CCOc1ccn(-c2ccc(F)cc2)c(=O)c1C(=O)Nc1ccc(Oc2ccnc(N)c2Cl)c(F)c1 [BMS-777607]
ΔTm at 10 µM [1]: 4.7 °C

O=C(NCCCNc1nc(Nc2cccc(NC(=O)N3CCCC3)c2)ncc1I)c1cccs1 [BX-795]
ΔTm at 10 µM [1]: 5.1 °C

COc1cc2c(Nc3cc(Cl)c(OC)c(Cl)c3)c(C#N)cnc2cc1OCCCN1CCN(C)CC1 [Bosutinib isomer]
ΔTm [2, 5]: 4.1 °C

Cc1cc(CN2CCN(c3c(Br)cnc4nc(-c5ccc(N6CCN(C)CC6)cc5)[nH]c34)CC2)no1 [CCT137690]
ΔTm [1]: 4.7 °C

O=C1NCCCc2c1oc1ccc(O)cc21 [CID 755673]
ΔTm [2, 5]: 4.4 °C

C=CC(=O)Nc1cccc(Nc2nc(Nc3ccc(N4CCN(C(C)=O)CC4)cc3OC)ncc2C(F)(F)F)c1 [CO-1686]
ΔTm at 10 µM [1]: 4.4 °C

Cc1nc(N)sc1-c1ccnc(Nc2ccc(N3CCOCC3)cc2)n1 [CYC116]
ΔTm at 10 µM [1]: 4.4 °C

N#CCNC(=O)c1ccc(-c2ccnc(Nc3ccc(N4CCOCC4)cc3)n2)cc1 [CYT387]
ΔTm at 10 µM [1]: 4.3 °C

CC1(COc2ccc3c(c2)ncn3-c2ccc3cccc(N4CCC(N)CC4)c3n2)COC1 [Crenolanib (CP-868596), Crenolanib]
ΔTm at 10 µM [1]: 10.6 °C
IC50 (CAMKK2-FL): 21 nM
IC50 (CAMKK1-FL): 82 nM

CO[C@@H](C(=O)N1Cc2n[nH]c(NC(=O)c3ccc(N4CCN(C)CC4)cc3)c2C1)c1ccccc1 [Danusertib]
ΔTm at 10 µM [1]: 5.1 °C

CN1CCN(c2ccc3nc(-c4c(N)c5c(F)cccc5[nH]c4=O)[nH]c3c2)CC1 [Dovitinib]
ΔTm at 12 µM [2, 5]: 6.9 °C

c1ccc(-c2cnc(Nc3ccc(OCCN4CCCC4)cc3)s2)cc1 [Flt3 Inhibitor III]
ΔTm [2, 5]: 7.5 °C

COc1cc2c(Oc3ccc(NC(=O)C4(C(=O)Nc5ccc(F)cc5)CC4)cc3F)ccnc2cc1OCCCN1CCOCC1 [Foretinib]
ΔTm at 10 µM [1]: 6.3 °C
IC50 (CAMKK2-FL): 1300 nM

CNc1nc(Nc2cnn([C@H]3CCN(C4COC4)C[C@@H]3F)c2Cl)ncc1C(F)(F)F [GNE-9605]
ΔTm [1]: 6.4 °C

O=C(O)c1ccc(-c2c[nH]c3ncc(-c4ccccc4)cc23)cc1C1CCCC1 [GSK650394]
ΔTm at 10 µM [1]: 16.2 °C
ΔG Run 1 (CAMKK2-KD; [3]): -11 kcal/mol
ΔH Run 1 (CAMKK2-KD; [3]): -20.9 kcal/mol
ΔG Run 2 (CAMKK2-KD; [4]): -10.9 kcal/mol
ΔH Run 2 (CAMKK2-KD; [4]): -18.9 kcal/mol

C[C@@H](Oc1cc(-n2cnc3ccc(OC[C@@H](O)CO)cc32)sc1C(N)=O)c1ccccc1Cl [GSK978744A]
ΔTm at 12 µM [2, 5]: 4.9 °C

O=C1NC(=O)/C(=C/c2ccc3nccc(-c4ccncc4)c3c2)S1 [GSK1059615]
ΔTm at 10 µM [1]: 4.4 °C

CN(c1ccc(NC(=O)Nc2ccc(OC(F)(F)F)cc2)cc1)c1ccnc(Nc2cccc(S(N)(=O)=O)c2)n1 [GW806742X]
ΔTm at 12 µM [2]: 5.8 °C
